In the NIST ThermoML archive (doi:10.1016/j.jct.2004.07.010):
± gives the expanded uncertainty stated by the source.

What was measured:
[1] = refractive index (Na D-line) (dimensionless); conditions: 293.15 K; 101.33 kPa; Liquid; Standard Abbe refractometry
[2] = 298.15 K, 101.33 kPa, Liquid

| refractive index [1] | mass density [2] [kg/m3] | mass density ([2]; Vibrating tube method) [kg/m3] | SMILES |
| --- | --- | --- | --- |
| 1.546 ± 0.0007 | 901.51 ± 0.31 |  | C=Cc1ccccc1 [styrene] |
| 1.4962 ± 0.0008 |  | 862.44 ± 0.55 | CCc1ccccc1 [ethylbenzene] |
| 1.4507 ± 0.0007 |  | 941.7 ± 0.11 | O=C1CCCCC1 [cyclohexanone] |

More lines, now with the values behind:

| SMILES | refractive index [1] | mass density [2] [kg/m3] | mass density ([2]; Vibrating tube method) [kg/m3] |
| --- | --- | --- | --- |
| Cc1ccccc1 [toluene] | 1.4965 ± 0.0008 | 862.14 ± 0.94 |  |
| c1ccccc1 [benzene] | 1.5009 ± 0.0007 | 873.56 ± 0.35 |  |
